Where only a bound is given, the exact number is not on record here.

Holding throughout (assay): microbe, parasite or virus in culture
Holding throughout (format): cell-based, HIV-1

Assay [1] deals with A364V site directed mutant virus. As to conditions: Human immunodeficiency virus 1, MT2, read-out: A364V EC50. Summed up:
(§1)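 Multiple-cycle assay in MT-2 cells infected with Renilla luciferase NL4-3 (Gag P373S background) carrying site-directed Gag A364V or V370A/ΔT371 changes, inocula normalized by luciferase signal. 10,000 cells/well, 3-fold compound dilutions, 1% DMSO, 4–5 days at 37°C; yield read as Renilla luciferase.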

For the next assay, the system named is gag V370A/ΔT371 virus. As to conditions: Human immunodeficiency virus 1, MT2, read-out: V370A/ΔT371 EC50. Summed up:
as §1

For assay [2], the system named is NLRepRlucP373S recombinant wild type (WT) virus. As to conditions: Human immunodeficiency virus 1, MT2, read-out: WT EC50. Summed up: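 MT-2 cells infected with NLRepRlucP373S Renilla luciferase reporter virus (NL4-3, Gag P373S), inocula normalized by luciferase signal; compounds 3-fold serially diluted, 1% DMSO final. Virus yield read by Renilla luciferase after 4-5 days at 37 °C. EC50/EC90 from median effect equation; background = signal at NFV 3 μM.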

Assay [3] has as its system T332S/V362I/Pr R41G virus. As to conditions: Human immunodeficiency virus 1, MT2, read-out: T332S/V362I/pr41G EC50. The gist of the method:
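Renilla luciferase NL4-3 reporter virus (Gag P373S background) carrying Gag T332S/V362I plus protease R41G, inoculum normalized by luciferase signal, infected MT-2 cells (10,000/well). Compounds 3-fold diluted, 1% DMSO final. After 4–5 days at 37 °C, virus yield measured as Renilla luciferase activity in a multiple-cycle assay.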

Turning to `C=C(C)[C@@H]1CC[C@]2(NCCN3CCS(=O)(=O)CC3)CC[C@]3(C)[C@H](CC[C@@H]4[C@@]5(C)CC=C(C6=CCC(COc7cc(C#N)ccn7)(C(=O)O)CC6)C(C)(C)[C@@H]5CC[C@]43C)[C@@H]12` (stereo partly drawn) [Example 37, 1-(((4-cyanopyridin-2-yl)oxy)methyl)-4-((1R,3aS,5aR,5bR,7aR,11aS,11bR,13aR,13bR)-3a-((2-(1,1-dioxidothiomorpholino)ethyl)amino)-5a,5b,8,8,11a-pentamethyl-1-(prop-1-en-2-yl)-2,3,3a,4,5,5a,5b,6,7,7a,8,11,11a,11b,12,13,13a,13b-octadecahydro-1H-cyclopenta[a]chrysen-9-yl)cyclohex-3-ene-1-carboxylic acid], the EC50 is more than 50 nM in assay [1], more than 50 nM in the assay on gag V370A/ΔT371 virus, less than 50 nM in assay [2] and more than 50 nM in assay [3].

As to `C=C(C)[C@@H]1CC[C@]2(NCCN3CCS(=O)(=O)CC3)CC[C@]3(C)[C@H](CC[C@@H]4[C@@]5(C)CC=C(C6=CCC(COc7ccc(C#N)cn7)(C(=O)O)CC6)C(C)(C)[C@@H]5CC[C@]43C)[C@@H]12` (stereo partly drawn) [Example 38, 1-(((5-cyanopyridin-2-yl)oxy)methyl)-4-((1R,3aS,5aR,5bR,7aR,11aS,11bR,13aR,13bR)-3a-((2-(1,1-dioxidothiomorpholino)ethyl)amino)-5a,5b,8,8,11a-pentamethyl-1-(prop-1-en-2-yl)-2,3,3a,4,5,5a,5b,6,7,7a,8,11,11a,11b,12,13,13a,13b-octadecahydro-1H-cyclopenta[a]chrysen-9-yl)cyclohex-3-ene-1-carboxylic acid], the EC50 in assay [1] worked out at 29 nM; in the assay with gag V370A/ΔT371 virus, 232 nM; in assay [2] it was 2 nM; in assay [3] it was 232 nM.

As to `C=C(C)[C@@H]1CC[C@]2(NCCN3CCS(=O)(=O)CC3)CC[C@]3(C)[C@H](CC[C@@H]4[C@@]5(C)CC=C(C6=CCC(CCOc7cnccn7)(C(=O)O)CC6)C(C)(C)[C@@H]5CC[C@]43C)[C@@H]12` (stereo partly drawn) [Example A31, 4-((1R,3aS,5aR,5bR,7aR,11aS,11bR,13aR,13bR)-3a-((2-(1,1-dioxidothiomorpholino)ethyl)amino)-5a,5b,8,8,11a-pentamethyl-1-(prop-1-en-2-yl)-2,3,3a,4,5,5a,5b,6,7,7a,8,11,11a,11b,12,13,13a,13b-octadecahydro-1H-cyclopenta[a]chrysen-9-yl)-1-(2-(pyrazin-2-yloxy)ethyl)cyclohex-3-ene-1-carboxylic acid], the EC50 in assay [1] is 3000 nM; in the assay with gag V370A/ΔT371 virus, more than 50 nM; in assay [2], 3 nM; in assay [3] it was more than 50 nM.

Turning to `C=C(C)[C@@H]1CC[C@]2(NCC[C@]3(O)CC[C@@H](S(C)(=O)=O)CC3)CC[C@]3(C)[C@H](CC[C@@H]4[C@@]5(C)CC=C(C6=CC[C@](COc7ncccc7C#N)(C(=O)O)CC6)C(C)(C)[C@@H]5CC[C@]43C)[C@@H]12` [Example A5, (R)-1-(((3-cyanopyridin-2-yl)oxy)methyl)-4-((1R,3aS,5aR,5bR,7aR,11aS,11bR,13aR,13bR)-3a-((2-((1s,4R)-1-hydroxy-4-(methylsulfonyl)cyclohexyl)ethyl)amino)-5a,5b,8,8,11a-pentamethyl-1-(prop-1-en-2-yl)-2,3,3a,4,5,5a,5b,6,7,7a,8,11,11a,11b,12,13,13a,13b-octadecahydro-1H-cyclopenta[a]chrysen-9-yl)cyclohex-3-enecarboxylic acid], the EC50 in assay [1] stood at 6 nM; in the assay with gag V370A/ΔT371 virus it was 3 nM; in assay [2] it was 2 nM; in assay [3], 3 nM.

Regarding `C=C(C)[C@@H]1CC[C@]2(NC[C@@](C)(O)CO)CC[C@]3(C)[C@H](CC[C@@H]4[C@@]5(C)CC=C(C6=CC[C@](COc7ncccc7C#N)(C(=O)O)CC6)C(C)(C)[C@@H]5CC[C@]43C)[C@@H]12` [Example A13, (R)-1-(((3-cyanopyridin-2-yl)oxy)methyl)-4-((1R,3aS,5aR,5bR,7aR,11aS,11bR,13aR,13bR)-3a-(((R)-2,3-dihydroxy-2-methylpropyl)amino)-5a,5b,8,8,11a-pentamethyl-1-(prop-1-en-2-yl)-2,3,3a,4,5,5a,5b,6,7,7a,8,11,11a,11b,12,13,13a,13b-octadecahydro-1H-cyclopentalalchrysen-9-yl)cyclohex-3-enecarboxylic acid], the EC50 was 831 nM in assay [1], 27 nM in the assay on gag V370A/ΔT371 virus, 2 nM in assay [2] and 27 nM in assay [3].

Regarding `C=C(C)[C@@H]1CC[C@]2(NCCN3CCS(=O)(=O)CC3)CC[C@]3(C)[C@H](CC[C@@H]4[C@@]5(C)CC=C(C6=CCC(CCOc7ncccc7Cl)(C(=O)O)CC6)C(C)(C)[C@@H]5CC[C@]43C)[C@@H]12` (stereo partly drawn) [Example A29, 1-(2-((3-chloropyridin-2-yl)oxy)ethyl)-4-((1R,3aS,5aR,5bR,7aR,11aS,11bR,13aR,13bR)-3a-((2-(1,1-dioxidothiomorpholino)ethyl)amino)-5a,5b,8,8,11a-pentamethyl-1-(prop-1-en-2-yl)-2,3,3a,4,5,5a,5b,6,7,7a,8,11,11a,11b,12,13,13a,13b-octadecahydro-1H-cyclopenta[a]chrysen-9-yl)cyclohex-3-ene-1-carboxylic acid], the EC50 in assay [1] amounted to 4 nM; in the assay on gag V370A/ΔT371 virus it was 3 nM; in assay [2] it was 5 nM; in assay [3] it was 3 nM.

As for `C=C(C)[C@@H]1CC[C@]2(NC[C@H](O)COC)CC[C@]3(C)[C@H](CC[C@@H]4[C@@]5(C)CC=C(C6=CC[C@](COc7ncccc7C#N)(C(=O)O)CC6)C(C)(C)[C@@H]5CC[C@]43C)[C@@H]12` [Example A11, (R)-1-(((3-cyanopyridin-2-yl)oxy)methyl)-4-((1R,3aS,5aR,5bR,7aR,11aS,11bR,13aR,13bR)-3a-(((S)-2-hydroxy-3-methoxypropyl)amino)-5a,5b,8,8,11a-pentamethyl-1-(prop-1-en-2-yl)-2,3,3a,4,5,5a,5b,6,7,7a,8,11,11a,11b,12,13,13a,13b-octadecahydro-1H-cyclopentalalchrysen-9-yl)cyclohex-3-enecarboxylic acid], the EC50 in assay [1] came out at 281 nM; in the assay on gag V370A/ΔT371 virus, 17 nM; in assay [2] it was 11 nM; in assay [3], 17 nM.

Take `C=C(C)[C@@H]1CC[C@]2(NC[C@@](C)(O)CO)CC[C@]3(C)[C@H](CC[C@@H]4[C@@]5(C)CC=C(C6=CC[C@](COc7ncccc7C(N)=O)(C(=O)O)CC6)C(C)(C)[C@@H]5CC[C@]43C)[C@@H]12` [Example A14, (R)-1-(((3-carbamoylpyridin-2-yl)oxy)methyl)-4-((1R,3aS,5aR,5bR,7aR,11aS,11bR,13aR,13bR)-3a-(((R)-2,3-dihydroxy-2-methylpropyl)amino)-5a,5b,8,8,11a-pentamethyl-1-(prop-1-en-2-yl)-2,3,3a,4,5,5a,5b,6,7,7a,8,11,11a,11b,12,13,13a,13b-octadecahydro-1H-cyclopenta[a]chrysen-9-yl)cyclohex-3-enecarboxylic acid]: the EC50 in assay [1] is 114 nM; with gag V370A/ΔT371 virus it was 110 nM; in assay [2], 5 nM; in assay [3], 110 nM.

Turning to `C=C(C)[C@@H]1CC[C@]2(NCCN3CCS(=O)(=O)CC3)CC[C@]3(C)[C@H](CC[C@@H]4[C@@]5(C)CC=C(C6=CCC(COc7cccc(C#N)n7)(C(=O)O)CC6)C(C)(C)[C@@H]5CC[C@]43C)[C@@H]12` (stereo partly drawn) [Example 39, 1-(((6-cyanopyridin-2-yl)oxy)methyl)-4-((1R,3aS,5aR,5bR,7aR,11aS,11bR,13aR,13bR)-3a-((2-(1,1-dioxidothiomorpholino)ethyl)amino)-5a,5b,8,8,11a-pentamethyl-1-(prop-1-en-2-yl)-2,3,3a,4,5,5a,5b,6,7,7a,8,11,11a,11b,12,13,13a,13b-octadecahydro-1H-cyclopenta[a]chrysen-9-yl)cyclohex-3-ene-1-carboxylic acid], the EC50 in assay [1] was less than 50 nM; in the assay with gag V370A/ΔT371 virus, more than 50 nM; in assay [2], 14 nM; in assay [3] it was more than 50 nM.

Take `C=C(C)[C@@H]1CC[C@]2(NCCN3CCS(=O)(=O)CC3)CC[C@]3(C)[C@H](CC[C@@H]4[C@@]5(C)CC=C(C6=CC[C@](COc7ncccc7Cl)(C(=O)O)CC6)C(C)(C)[C@@H]5CC[C@]43C)[C@@H]12` [Example 22]: the EC50 in assay [1] stood at 8 nM; with gag V370A/ΔT371 virus it was 15 nM; in assay [2], 5 nM; in assay [3], 15 nM.

With `C=C(C)[C@@H]1CC[C@]2(NCCN3CCS(=O)(=O)CC3)CC[C@]3(C)[C@H](CC[C@@H]4[C@@]5(C)CC=C(C6=CCC(COc7nccs7)(C(=O)O)CC6)C(C)(C)[C@@H]5CC[C@]43C)[C@@H]12` (stereo partly drawn) [Example 15, 4-((1R,3aS,5aR,5bR,7aR,11aS,11bR,13aR,13bR)-3a-((2-(1,1-dioxidothiomorpholino)ethyl)amino)-5a,5b,8,8,11a-pentamethyl-1-(prop-1-en-2-yl)-2,3,3a,4,5,5a,5b,6,7,7a,8,11,11a,11b,12,13,13a,13b-octadecahydro-1H-cyclopenta[a]chrysen-9-yl)-1-((thiazol-2-yloxy)methyl)cyclohex-3-ene-1-carboxylic acid], the EC50 amounted to 2380 nM in assay [1], 390 nM in the assay with gag V370A/ΔT371 virus, 4 nM in assay [2] and 390 nM in assay [3].

The values above are taken from patent publication US10421774B2 (priority 2016, dated 2019).
